In ChEMBL document CHEMBL5724914, “Linking interpersonal differences in gut microbiota composition and drug biotransformation activity” (2024):

assay: (§1) The drug is tested on Z-027 corresponding to metagenome with ENA study accession number: PRJEB37062 and ENA sample accession number: ERS12561826 for biotransformation under anaerobic condition. The drug concentrations were measured over 9 timepoints collected between 0 and 24 hours of incubation by liquid-chromatography-coupled mass spectrometry (LC–MS); settings: 2 µM
Note: call rule not given here.

Bacterial Biotransformation | Compound
Compound NOT metabolized | CC(=O)OCC(=O)[C@@]1(OC(C)=O)[C@@H](C)C[C@H]2[C@@H]3C[C@H](F)C4=CC(=O)C=C[C@]4(C)[C@@]3(F)[C@@H](O)C[C@@]21C [DIFLORASONE DIACETATE]
Compound NOT metabolized | CN(C)CCC=C1c2ccccc2COc2ccccc21 [DOXEPIN]

assay: (§2) The drug is tested on Z-019 corresponding to rat gut metagenome with ENA study accession number: PRJEB37062 and ENA sample accession number: ERS12561818 for biotransformation under anaerobic condition. The drug concentrations were measured over 9 timepoints collected between 0 and 24 hours of incubation by liquid-chromatography-coupled mass spectrometry (LC–MS); settings: 2 µM

Bacterial Biotransformation | Compound
Compound NOT metabolized | CC(=O)OCC(=O)[C@@]1(OC(C)=O)[C@@H](C)C[C@H]2[C@@H]3C[C@H](F)C4=CC(=O)C=C[C@]4(C)[C@@]3(F)[C@@H](O)C[C@@]21C [DIFLORASONE DIACETATE]
Compound NOT metabolized | CN(C)CCC=C1c2ccccc2COc2ccccc21 [DOXEPIN]

assay: as §2, with “on Z-018” for “on Z-019”, “to pig” for “to rat”, “number: ERS12561817” for “number: ERS12561818”; settings: 2 µM

Bacterial Biotransformation | Compound
Compound metabolized | CC(=O)OCC(=O)[C@@]1(OC(C)=O)[C@@H](C)C[C@H]2[C@@H]3C[C@H](F)C4=CC(=O)C=C[C@]4(C)[C@@]3(F)[C@@H](O)C[C@@]21C [DIFLORASONE DIACETATE]
Compound NOT metabolized | CN(C)CCC=C1c2ccccc2COc2ccccc21 [DOXEPIN]

assay: as §2, with “Z-014” for “Z-019”, “ERS12561814” for “ERS12561818”; settings: 2 µM

Bacterial Biotransformation | Compound
Compound NOT metabolized | CC(=O)OCC(=O)[C@@]1(OC(C)=O)[C@@H](C)C[C@H]2[C@@H]3C[C@H](F)C4=CC(=O)C=C[C@]4(C)[C@@]3(F)[C@@H](O)C[C@@]21C [DIFLORASONE DIACETATE]
Compound NOT metabolized | CN(C)CCC=C1c2ccccc2COc2ccccc21 [DOXEPIN]

assay: as §1, with “Z-010” for “Z-027”, “ERS12561810” for “ERS12561826”; settings: 2 µM

Bacterial Biotransformation | Compound
Compound metabolized | CC(=O)OCC(=O)[C@@]1(OC(C)=O)[C@@H](C)C[C@H]2[C@@H]3C[C@H](F)C4=CC(=O)C=C[C@]4(C)[C@@]3(F)[C@@H](O)C[C@@]21C [DIFLORASONE DIACETATE]
Compound NOT metabolized | CN(C)CCC=C1c2ccccc2COc2ccccc21 [DOXEPIN]

assay: as §2, with “on Z-006” for “on Z-019”, “to mouse” for “to rat”, “number: ERS12561806” for “number: ERS12561818”; settings: 2 µM

Bacterial Biotransformation | Compound
Compound metabolized | CC(=O)OCC(=O)[C@@]1(OC(C)=O)[C@@H](C)C[C@H]2[C@@H]3C[C@H](F)C4=CC(=O)C=C[C@]4(C)[C@@]3(F)[C@@H](O)C[C@@]21C [DIFLORASONE DIACETATE]
Compound NOT metabolized | CN(C)CCC=C1c2ccccc2COc2ccccc21 [DOXEPIN]

assay: as §1, with “Z-005” for “Z-027”, “ERS12561805” for “ERS12561826”; settings: 2 µM

Bacterial Biotransformation | Compound
Compound metabolized | CC(=O)OCC(=O)[C@@]1(OC(C)=O)[C@@H](C)C[C@H]2[C@@H]3C[C@H](F)C4=CC(=O)C=C[C@]4(C)[C@@]3(F)[C@@H](O)C[C@@]21C [DIFLORASONE DIACETATE]
Compound NOT metabolized | CN(C)CCC=C1c2ccccc2COc2ccccc21 [DOXEPIN]

assay: as §1, with “Z-004” for “Z-027”, “ERS12561804” for “ERS12561826”; settings: 2 µM

Bacterial Biotransformation | Compound
Compound NOT metabolized | CC(=O)OCC(=O)[C@@]1(OC(C)=O)[C@@H](C)C[C@H]2[C@@H]3C[C@H](F)C4=CC(=O)C=C[C@]4(C)[C@@]3(F)[C@@H](O)C[C@@]21C [DIFLORASONE DIACETATE]
Compound NOT metabolized | CN(C)CCC=C1c2ccccc2COc2ccccc21 [DOXEPIN]

assay: as §2, with “on WLS-370” for “on Z-019”, “to human” for “to rat”, “number: ERS12561793” for “number: ERS12561818”; settings: 2 µM

Bacterial Biotransformation | Compound
Compound metabolized | CC(=O)OCC(=O)[C@@]1(OC(C)=O)[C@@H](C)C[C@H]2[C@@H]3C[C@H](F)C4=CC(=O)C=C[C@]4(C)[C@@]3(F)[C@@H](O)C[C@@]21C [DIFLORASONE DIACETATE]
Compound metabolized | CN(C)CCC=C1c2ccccc2COc2ccccc21 [DOXEPIN]

assay: as §2, with “on WLS-310” for “on Z-019”, “to human” for “to rat”, “number: ERS12561785” for “number: ERS12561818”; settings: 2 µM

Bacterial Biotransformation | Compound
Compound metabolized | CC(=O)OCC(=O)[C@@]1(OC(C)=O)[C@@H](C)C[C@H]2[C@@H]3C[C@H](F)C4=CC(=O)C=C[C@]4(C)[C@@]3(F)[C@@H](O)C[C@@]21C [DIFLORASONE DIACETATE]
Compound metabolized | CN(C)CCC=C1c2ccccc2COc2ccccc21 [DOXEPIN]

assay: as §2, with “on WLS-086” for “on Z-019”, “to human” for “to rat”, “number: ERS12561752” for “number: ERS12561818”; settings: 2 µM

Bacterial Biotransformation | Compound
Compound metabolized | CC(=O)OCC(=O)[C@@]1(OC(C)=O)[C@@H](C)C[C@H]2[C@@H]3C[C@H](F)C4=CC(=O)C=C[C@]4(C)[C@@]3(F)[C@@H](O)C[C@@]21C [DIFLORASONE DIACETATE]
Compound NOT metabolized | CN(C)CCC=C1c2ccccc2COc2ccccc21 [DOXEPIN]

assay: as §2, with “on WLS-010” for “on Z-019”, “to human” for “to rat”, “number: ERS12561743” for “number: ERS12561818”; settings: 2 µM

Bacterial Biotransformation | Compound
Compound metabolized | CC(=O)OCC(=O)[C@@]1(OC(C)=O)[C@@H](C)C[C@H]2[C@@H]3C[C@H](F)C4=CC(=O)C=C[C@]4(C)[C@@]3(F)[C@@H](O)C[C@@]21C [DIFLORASONE DIACETATE]
Compound NOT metabolized | CN(C)CCC=C1c2ccccc2COc2ccccc21 [DOXEPIN]

assay: as §2, with “on WLS-007” for “on Z-019”, “to human” for “to rat”, “number: ERS12561742” for “number: ERS12561818”; settings: 2 µM

Bacterial Biotransformation | Compound
Compound metabolized | CC(=O)OCC(=O)[C@@]1(OC(C)=O)[C@@H](C)C[C@H]2[C@@H]3C[C@H](F)C4=CC(=O)C=C[C@]4(C)[C@@]3(F)[C@@H](O)C[C@@]21C [DIFLORASONE DIACETATE]
Compound metabolized | CN(C)CCC=C1c2ccccc2COc2ccccc21 [DOXEPIN]

settings: human gut metagenome, 24 h, 2 µM

Bacterial Biotransformation | Compound
Compound metabolized | CC(=O)OCC(=O)[C@@]1(OC(C)=O)[C@@H](C)C[C@H]2[C@@H]3C[C@H](F)C4=CC(=O)C=C[C@]4(C)[C@@]3(F)[C@@H](O)C[C@@]21C [DIFLORASONE DIACETATE]
Compound NOT metabolized | CN(C)CCC=C1c2ccccc2COc2ccccc21 [DOXEPIN]

settings: human gut metagenome, 24 h, 2 µM; remark: another data set of the same source

Bacterial Biotransformation | Compound
Compound metabolized | CC(=O)OCC(=O)[C@@]1(OC(C)=O)[C@@H](C)C[C@H]2[C@@H]3C[C@H](F)C4=CC(=O)C=C[C@]4(C)[C@@]3(F)[C@@H](O)C[C@@]21C [DIFLORASONE DIACETATE]
Compound metabolized | CN(C)CCC=C1c2ccccc2COc2ccccc21 [DOXEPIN]

settings: human gut metagenome, 24 h, 2 µM; remark: another data set of the same source

Bacterial Biotransformation | Compound
Compound metabolized | CC(=O)OCC(=O)[C@@]1(OC(C)=O)[C@@H](C)C[C@H]2[C@@H]3C[C@H](F)C4=CC(=O)C=C[C@]4(C)[C@@]3(F)[C@@H](O)C[C@@]21C [DIFLORASONE DIACETATE]
Compound metabolized | CN(C)CCC=C1c2ccccc2COc2ccccc21 [DOXEPIN]

settings: human gut metagenome, 24 h, 2 µM; remark: another data set of the same source

Bacterial Biotransformation | Compound
Compound metabolized | CC(=O)OCC(=O)[C@@]1(OC(C)=O)[C@@H](C)C[C@H]2[C@@H]3C[C@H](F)C4=CC(=O)C=C[C@]4(C)[C@@]3(F)[C@@H](O)C[C@@]21C [DIFLORASONE DIACETATE]
Compound NOT metabolized | CN(C)CCC=C1c2ccccc2COc2ccccc21 [DOXEPIN]

settings: human gut metagenome, 24 h, 2 µM; remark: another data set of the same source

Bacterial Biotransformation | Compound
Compound metabolized | CC(=O)OCC(=O)[C@@]1(OC(C)=O)[C@@H](C)C[C@H]2[C@@H]3C[C@H](F)C4=CC(=O)C=C[C@]4(C)[C@@]3(F)[C@@H](O)C[C@@]21C [DIFLORASONE DIACETATE]
Compound NOT metabolized | CN(C)CCC=C1c2ccccc2COc2ccccc21 [DOXEPIN]

settings: human gut metagenome, 24 h, 2 µM; remark: another data set of the same source

Bacterial Biotransformation | Compound
Compound metabolized | CC(=O)OCC(=O)[C@@]1(OC(C)=O)[C@@H](C)C[C@H]2[C@@H]3C[C@H](F)C4=CC(=O)C=C[C@]4(C)[C@@]3(F)[C@@H](O)C[C@@]21C [DIFLORASONE DIACETATE]
Compound NOT metabolized | CN(C)CCC=C1c2ccccc2COc2ccccc21 [DOXEPIN]

settings: human gut metagenome, 24 h, 2 µM; remark: another data set of the same source

Bacterial Biotransformation | Compound
Compound metabolized | CC(=O)OCC(=O)[C@@]1(OC(C)=O)[C@@H](C)C[C@H]2[C@@H]3C[C@H](F)C4=CC(=O)C=C[C@]4(C)[C@@]3(F)[C@@H](O)C[C@@]21C [DIFLORASONE DIACETATE]
Compound metabolized | CN(C)CCC=C1c2ccccc2COc2ccccc21 [DOXEPIN]
